Experimental data as given in PubChem BioAssay AID248 (DTP/NCI, 2004).
Where “and” joins values, the source holds several entries; their conditions need not be identical. Identical values can stand only once. Inconclusive results and toxic doses are left out.

System: L1210 leukemia ip in BDF1 mice, survival T/C
Test: NCI In Vivo Anticancer Drug Screen. Data for tumor model L1210 Leukemia (intraperitoneal) in B6D2F1 (BDF1) mice
Conditions: endpoint: mean survival time, higher = longer survival
In short: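 Tumor cells were implanted, animals were treated, and survival was followed. The result divides the treated measurement by the vehicle-control measurement.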

[1] = dose: 100.0 mg/kg/injection, schedule: Q04DX003 (ip), vehicle: saline with Tween-80
[2] = dose: 200.0 mg/kg/injection, schedule: Q04DX003 (ip), vehicle: saline with Tween-80
[3] = dose: 400.0 mg/kg/injection, schedule: Q04DX003 (ip), vehicle: saline with Tween-80

COc1cccc2c1C(=O)c1c(O)c3c(c(O)c1C2=O)CC(O)(C(C)=O)CC3OC1CC(NC(=O)C(F)(F)F)C(O)C(C)O1 (centres undefined)
T/C (dose: 0.25 mg/kg/injection, schedule: Q04DX003 (ip), vehicle: water): 96 % of control
T/C (dose: 0.5 mg/kg/injection, schedule: Q04DX003 (ip), vehicle: water): 95 % of control
T/C (dose: 1.0 mg/kg/injection, schedule: Q04DX003 (ip), vehicle: water): 106 % of control
T/C (dose: 2.0 mg/kg/injection, schedule: Q04DX003 (ip), vehicle: water): 111 % of control
T/C (dose: 4.0 mg/kg/injection, schedule: Q04DX003 (ip), vehicle: water): 98 % of control
T/C (dose: 8.0 mg/kg/injection, schedule: Q04DX003 (ip), vehicle: water): 90 % of control
T/C (dose: 14.0 mg/kg/injection, schedule: Q04DX003 (ip), vehicle: water): 107 % of control
T/C (dose: 16.0 mg/kg/injection, schedule: Q04DX003 (ip), vehicle: water): 101 % of control
T/C (dose: 21.0 mg/kg/injection, schedule: Q04DX003 (ip), vehicle: water): 113 % of control
T/C (dose: 25.0 mg/kg/injection, schedule: Q04DX003 (ip), vehicle: water): 110 % of control
T/C (dose: 32.0 mg/kg/injection, schedule: Q04DX003 (ip), vehicle: water): 110 % of control
T/C (dose: 50.0 mg/kg/injection, schedule: Q04DX003 (ip), vehicle: water): 107 % of control and 112 % of control
T/C (dose: 100.0 mg/kg/injection, schedule: Q04DX003 (ip), vehicle: water): 112 % of control

CC(=O)N(Cc1ccccc1)C1C(OCc2ccccc2)OC(CO)C(O)C1OCc1ccccc1 (centres undefined)
T/C (dose: 100.0 mg/kg/injection, schedule: Q01DX001 (ip), vehicle: saline with Tween-80): 89 % of control
T/C (dose: 200.0 mg/kg/injection, schedule: Q01DX001 (ip), vehicle: saline with Tween-80): 96 % of control
T/C (dose: 400.0 mg/kg/injection, schedule: Q01DX001 (ip), vehicle: saline with Tween-80): 100 % of control

Cc1cc(C)c(C2=C(CC(=O)O)C(=O)c3ccccc3C2=O)c(C)c1
T/C (dose: 100.0 mg/kg/injection, schedule: Q04DX003 (ip), vehicle: gum acacia): 92 % of control
T/C (dose: 200.0 mg/kg/injection, schedule: Q04DX003 (ip), vehicle: gum acacia): 90 % of control
T/C (dose: 400.0 mg/kg/injection, schedule: Q04DX003 (ip), vehicle: gum acacia): 90 % of control

C=CCSC(=S)OCC
T/C (dose: 25.0 mg/kg/injection, schedule: Q01DX009 (ip), vehicle: saline with Tween-80): 88 % of control
T/C (dose: 50.0 mg/kg/injection, schedule: Q01DX009 (ip), vehicle: saline with Tween-80): 104 % of control
T/C (dose: 100.0 mg/kg/injection, schedule: Q01DX009 (ip), vehicle: saline with Tween-80): 109 % of control

CNc1ccc(N=Nc2ccncc2C)cc1C
T/C [1]: 102 % of control
T/C [2]: 96 % of control
T/C [3]: 96 % of control

Cc1cc(C)c2c(c1)C(=O)C(=O)c1cc(C)cc(C)c1-2
T/C (dose: 50.0 mg/kg/injection, schedule: Q04DX002 (ip), vehicle: Klucel (hydroxypropylcellulose) (HPC)): 95 % of control
T/C (dose: 100.0 mg/kg/injection, schedule: Q04DX002 (ip), vehicle: Klucel (hydroxypropylcellulose) (HPC)): 94 % of control and 92 % of control
T/C (dose: 200.0 mg/kg/injection, schedule: Q04DX002 (ip), vehicle: Klucel (hydroxypropylcellulose) (HPC)): 98 % of control
T/C (dose: 400.0 mg/kg/injection, schedule: Q04DX002 (ip), vehicle: Klucel (hydroxypropylcellulose) (HPC)): 116 % of control and 88 % of control

CCc1c(CNc2ccc(C(=O)NC(CC(=O)O)C(=O)O)cc2)ccc2nc(N)nc(N)c12 (centres undefined)
T/C (dose: 0.06 mg/kg/injection, schedule: Q01DX009 (ip), vehicle: saline): 112 % of control
T/C (dose: 0.25 mg/kg/injection, schedule: Q01DX009 (ip), vehicle: saline): 150 % of control and 184 % of control
T/C (dose: 0.5 mg/kg/injection, schedule: Q01DX009 (ip), vehicle: saline): 150 % of control
T/C (dose: 0.5 mg/kg/injection, schedule: Q04DX003 (ip), vehicle: saline): 112 % of control
T/C (dose: 1.0 mg/kg/injection, schedule: Q01DX009 (ip), vehicle: saline): 90 % of control and 91 % of control
T/C (dose: 4.0 mg/kg/injection, schedule: Q04DX003 (ip), vehicle: saline): 154 % of control
T/C (dose: 8.0 mg/kg/injection, schedule: Q04DX003 (ip), vehicle: saline): 113 % of control

O=C/C(Br)=C(/Br)C(=O)O
T/C (dose: 6.25 mg/kg/injection, schedule: Q04DX002 (ip), vehicle: saline): 100 % of control
T/C (dose: 12.5 mg/kg/injection, schedule: Q04DX002 (ip), vehicle: saline): 100 % of control
T/C (dose: 25.0 mg/kg/injection, schedule: Q04DX002 (ip), vehicle: saline + alcohol): 114 % of control
T/C (dose: 25.0 mg/kg/injection, schedule: Q04DX002 (ip), vehicle: saline): 111 % of control

O=C(Nc1cc(C(F)(F)F)cc(C(F)(F)F)c1)Nc1c(Oc2ccc(Cl)cc2Cl)ccc(Cl)c1S(=O)(=O)O
T/C (dose: 100.0 mg/kg/injection, schedule: Q04DX003 (ip), vehicle: saline sonified): 100 % of control
T/C (dose: 200.0 mg/kg/injection, schedule: Q04DX003 (ip), vehicle: saline sonified): 100 % of control

O=C(/C=C/C(=O)N1CCOCC1)N1CCOCC1
T/C [1]: 100 % of control
T/C [2]: 104 % of control
T/C [3]: 116 % of control

ClC1=CC2CCC(C2)C1Cl (centres undefined)
T/C (dose: 100.0 mg/kg/injection, schedule: Q01DX009 (ip), vehicle: saline): 106 % of control
T/C (dose: 100.0 mg/kg/injection, schedule: Q04DX003 (ip), vehicle: acetone): 88 % of control
T/C (dose: 200.0 mg/kg/injection, schedule: Q01DX009 (ip), vehicle: saline): 102 % of control
T/C (dose: 200.0 mg/kg/injection, schedule: Q04DX003 (ip), vehicle: acetone): 88 % of control
T/C (dose: 400.0 mg/kg/injection, schedule: Q01DX009 (ip), vehicle: saline): 103 % of control
T/C (dose: 400.0 mg/kg/injection, schedule: Q04DX003 (ip), vehicle: acetone): 90 % of control

O=S(=O)(CC(I)c1ccccc1)c1ccccc1 (centres undefined)
T/C (dose: 100.0 mg/kg/injection, schedule: Q04DX003 (ip), vehicle: saline): 105 % of control
T/C (dose: 200.0 mg/kg/injection, schedule: Q04DX003 (ip), vehicle: saline): 94 % of control
T/C (dose: 400.0 mg/kg/injection, schedule: Q04DX003 (ip), vehicle: saline): 92 % of control
